Results published in patent publication US7875261B2, “Fluorinated resorufin compounds and their application” (Life Technologies Corporation, priority 2003, dated 2011).

Key:
[1] = target: T1, horseradish peroxidase (HRP) (Armoracia rusticana, UniProt P00433); test: Detection of horseradish peroxidase activity at acidic pH; type: biochemical; conditions: for Z-factor: pH 5.5, 50 μM H2O2, 60 minutes at 30° C.; for Lower limit of detection of HRP activity: pH 5.5, dye as reporting fluorogenic substrate
T1 sequence (P00433 31-338): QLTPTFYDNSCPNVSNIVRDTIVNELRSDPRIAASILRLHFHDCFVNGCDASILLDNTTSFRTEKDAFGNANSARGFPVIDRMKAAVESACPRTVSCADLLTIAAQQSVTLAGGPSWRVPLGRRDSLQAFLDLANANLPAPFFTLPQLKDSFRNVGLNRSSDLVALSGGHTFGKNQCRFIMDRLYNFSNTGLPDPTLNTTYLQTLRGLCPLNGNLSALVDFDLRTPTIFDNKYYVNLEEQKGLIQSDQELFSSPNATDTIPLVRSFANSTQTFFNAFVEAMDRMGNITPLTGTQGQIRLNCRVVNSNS
Description: A dilution series of horseradish peroxidase (HRP; EC 1.11.1.7) was prepared in 0.1 M sodium acetate, pH 5.5. The enzyme dilutions were added to a CoStar 96-well round bottom plate in 50 μL aliquots. Mixtures containing 100 μM hydrogen peroxide (H2O2), 0.1 M sodium acetate, pH 5.5, and 100 μM Amplex Red or 100 μM Compound 4 were prepared, and reactions were initiated by addition of 50 μL of reagent mixture to the enzyme dilution series. Reactions were done in triplicate, for 60 minutes at 30° C. Fluorescence was measured with a CytoFluor® Series 4000 Multi-Well Plate Reader (PerSeptive Biosystems, Framingham, Mass.), 530+/−12.5 nm excitation, 580+/−25 nm emission. The fluorescent signal was graphed as a function of HRP concentration (See, FIG. 9) and the Z-factor (Table 6) was calculated according to Zhang et al. (1999).

COX-2 = target: T2, COX-2 (Mus musculus, UniProt Q05769); test: Detection of LPS-induced COX-2 activity in RAW 264.7 cell lysate; type: biochemical; conditions: 40 μM dye, 80 μM arachidonic acid, 200,000 lysed cell equivalents, 37° C., twenty minutes, FIG. 7
T2 construct: RAW 264.7 mouse macrophage cells (ATCC # TIB-71) were grown overnight; endogenous in cells; host or cells: RAW 264.7 mouse macrophage cells (ATCC TIB-71), LPS-treated, sonicated lysate
T2 sequence (Q05769 18-604): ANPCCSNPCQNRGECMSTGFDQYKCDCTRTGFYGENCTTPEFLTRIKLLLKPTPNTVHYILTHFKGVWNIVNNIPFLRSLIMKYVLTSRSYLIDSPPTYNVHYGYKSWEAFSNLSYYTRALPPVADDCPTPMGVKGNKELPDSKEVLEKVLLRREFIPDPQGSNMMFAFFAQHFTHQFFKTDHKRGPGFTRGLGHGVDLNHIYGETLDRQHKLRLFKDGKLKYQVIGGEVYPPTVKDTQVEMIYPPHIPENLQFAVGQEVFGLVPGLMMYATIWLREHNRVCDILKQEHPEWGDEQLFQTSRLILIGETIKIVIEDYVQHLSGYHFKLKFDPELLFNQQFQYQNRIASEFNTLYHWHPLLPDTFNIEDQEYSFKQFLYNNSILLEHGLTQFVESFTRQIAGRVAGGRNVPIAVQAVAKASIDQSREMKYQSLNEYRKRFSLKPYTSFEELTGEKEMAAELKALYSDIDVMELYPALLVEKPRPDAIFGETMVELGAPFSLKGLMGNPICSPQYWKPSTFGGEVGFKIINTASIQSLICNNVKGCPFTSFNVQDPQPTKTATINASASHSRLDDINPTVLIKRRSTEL
Description: The following morning the old media was removed and replaced with 12 ml fresh, warm, DMEM+10% FBS. To one plate, 12 μl of 100 μg/ml lipopolysaccaride (LPS) from E. coli strain 055:B5 (Sigma, catalog #L2880) in water was added. To the other plate, 12 μl of water alone was added. Both plates were incubated for 8 hours, 37° C., 5% CO2. The cells from each plate were gently resuspended into ice-cold 100 mM Tris, pH 7.5 to 4000 cells/μl (counted by hemocytometer). Both batches of cells were lysed with a probe sonicator for 40 seconds with a 30% duty cycle using power output of 3 on a scale of 1 to 10. 50 μl of the resulting cell lysates were added to a 96-well microplate. […] The plate was incubated at room temperature (˜24° C.) for 10 minutes to allow the COX-2 inhibitor time to inhibit the enzyme.
The resulting reactions were incubated at 37° C. in the dark for twenty minutes. At that point, the resulting fluorescence was measured on a PerSeptive Biosystems CytoFluor 4000 microtiter plate reader (Framingham, Mass.). The excitation filter was 530 nm (+/−12.5 nm) and the emission filter 590 nm (+/−17.5 nm), with a gain setting of 50.

[2] = target: T3, Recombinant human cyclooxygenase-2 (COX-2) (Homo sapiens, UniProt P35354); test: Cyclooxygenase-2 assay; type: biochemical; conditions: 50 μM dye, 100 μM arachidonic acid, 2 μM hemin, 37° C., thirty minutes, FIG. 2
T3 construct: purchased Cayman Chemical
T3 sequence (P35354 18-604): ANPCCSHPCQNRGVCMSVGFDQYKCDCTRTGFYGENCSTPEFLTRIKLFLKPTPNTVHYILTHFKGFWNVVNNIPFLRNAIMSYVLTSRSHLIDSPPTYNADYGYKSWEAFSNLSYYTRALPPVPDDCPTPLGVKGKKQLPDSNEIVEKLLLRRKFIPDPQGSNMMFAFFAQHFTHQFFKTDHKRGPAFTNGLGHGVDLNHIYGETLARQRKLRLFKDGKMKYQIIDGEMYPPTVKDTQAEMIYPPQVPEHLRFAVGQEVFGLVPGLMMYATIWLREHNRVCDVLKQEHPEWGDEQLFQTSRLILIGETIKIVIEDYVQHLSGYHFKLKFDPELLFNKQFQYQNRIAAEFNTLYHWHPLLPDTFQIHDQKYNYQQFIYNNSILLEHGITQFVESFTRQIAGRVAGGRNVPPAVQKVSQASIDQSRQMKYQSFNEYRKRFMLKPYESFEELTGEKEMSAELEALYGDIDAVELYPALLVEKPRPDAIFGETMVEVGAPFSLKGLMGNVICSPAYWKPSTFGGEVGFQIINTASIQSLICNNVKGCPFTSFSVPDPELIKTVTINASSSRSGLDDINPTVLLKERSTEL
Description: Amplex Red (Molecular Probes, Inc. A-12222) and Compound 4 were resuspended to 10 mM in dry DMSO. Recombinant human cyclooxygenase-2 (COX-2, from Cayman Chemical) was serially diluted (in triplicate for each dye) two-fold in a 96-well microplate in 50 μl of 100 mM Tris, pH 8.0. 10 μl of 20 μM hemin (a COX-2 cofactor) in 100 mM Tris, pH 8.0 was added to all wells. After a five minute incubation at room temperature to allow the hemin to interact with the COX-2 enzyme, 40 μl of either 125 μM Amplex Red+250 μM arachidonic acid or 125 μM Compound 4+250 μM arachidonic acid in 100 mM Tris, pH 8.0 was added to all wells. The final reagent concentrations in the wells was zero to 50 Units/ml COX-2, 2 μM hemin, 100 μM arachidonic acid, and 50 μM Amplex Red reagent or Compound 4 in 100 μl of 100 mM Tris, pH 8.0.
(§1) The resulting reactions were incubated at 37° C. in the dark for thirty minutes. At that point, the resulting fluorescence was measured on a PerSeptive Biosystems CytoFluor 4000 microtiter plate reader (Framingham, Mass.). The excitation filter was 530 nm (+/−12.5 nm) and the emission filter 590 nm (+/−17.5 nm), with a gain setting of 40.

Myeloperoxidase = target: T4, Myeloperoxidase (Homo sapiens, UniProt P05164); test: Detection of myeloperoxidase; type: biochemical; conditions: 125 μM Compound 4, 50 μM hydrogen peroxide, PBS, 37° C.
T4 construct: purchased Sigma M-6908
T4 sequence (P05164 49-745): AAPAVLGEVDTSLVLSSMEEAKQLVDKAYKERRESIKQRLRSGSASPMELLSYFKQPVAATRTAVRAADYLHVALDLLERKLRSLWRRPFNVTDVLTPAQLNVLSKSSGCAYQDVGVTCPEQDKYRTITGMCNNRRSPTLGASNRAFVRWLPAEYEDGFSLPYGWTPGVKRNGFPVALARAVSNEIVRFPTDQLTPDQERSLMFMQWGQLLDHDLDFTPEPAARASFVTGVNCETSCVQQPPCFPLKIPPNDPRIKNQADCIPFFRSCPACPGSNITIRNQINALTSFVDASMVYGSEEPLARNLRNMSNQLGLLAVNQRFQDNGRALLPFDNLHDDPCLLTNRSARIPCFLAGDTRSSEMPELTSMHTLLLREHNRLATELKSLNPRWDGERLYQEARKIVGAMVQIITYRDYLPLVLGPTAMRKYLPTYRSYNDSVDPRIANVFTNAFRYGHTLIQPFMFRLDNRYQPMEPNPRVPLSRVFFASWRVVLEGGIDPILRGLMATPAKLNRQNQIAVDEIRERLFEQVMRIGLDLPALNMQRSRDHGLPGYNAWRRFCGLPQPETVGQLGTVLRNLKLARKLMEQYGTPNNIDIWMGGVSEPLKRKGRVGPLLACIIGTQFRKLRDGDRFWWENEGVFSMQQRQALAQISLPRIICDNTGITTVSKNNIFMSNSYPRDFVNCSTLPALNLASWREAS
Description: Myeloperoxidase (Sigma # M-6908) was diluted to 1 unit/mL using phosphate buffered saline (PBS, 50 mM sodium phosphate, pH 7.4, 150 mM sodium chloride). The solution was then serially diluted two fold using the same buffer. 50 μL of the preparations were added in a 96-well microplate (Nunc # 449824). 20 μL of 625 μM Compound 4 and 30 μl of 165 μM hydrogen peroxide (Aldrich # 323381) in PBS were added to all wells. The final reagent concentration in the wells was zero to 0.5 U/mL myeloperoxidase, 125 μM Compound 4 and 50 μM hydrogen peroxide in 100 μl of PBS.
The resulting reactions were incubated at 37° C. in a PerSeptive Biosystems CytoFluor 4000 microtiter plate reader (Framingham, Mass.). The excitation filter was 530 nm (+/−12.5 nm) and the emission filter 580 nm (+/−25 nm), with a gain setting of 35. Fluorescence was read every five minutes for up to 30 minutes.

Bovine hemoglobin = target: T5, Bovine hemoglobin (Bos taurus, UniProt P01966+P02070); test: Hemoglobin assay; type: biochemical; conditions: 50 μM dye, 50 μM H2O2, 37° C., thirty minutes, FIG. 3
T5 construct: purchased Sigma H-2500
Description: Amplex Red (Molecular Probes Inc. A-12222) and Compound 4 were each resuspended to 10 mM in dry DMSO. Bovine hemoglobin (Sigma, catalog #H-2500) was serially diluted (in triplicate for each dye) two-fold in a 96-well microplate in 50 μl of 50 mM Tris, pH 7.5. 50 μl of either 100 μM Amplex Red+100 μM H2O2 or 100 μM Compound 4+100 μM H2O2 in 50 mM Tris, pH 7.5 was added to all wells. The final reagent concentrations in the wells was zero to 2000 ng/ml bovine hemoglobin, 50 μM H2O2, and 50 μM Amplex Red or Compound 4 in 100 μl of […], pH 7.5.
as §1

[3] = Photostability study (continuous irradiation in a spectrofluorimeter); type: physicochemical; conditions: solutions matched by optical density 0.03 at 560 nm, aqueous buffer pH 9, continuous irradiation at 560 nm
Description: For example, solutions of each were matched by optical density (0.03 at 560 nm in aqueous buffer at pH 9), then continuously irradiated in a spectrofluorimeter at 560 nm for 30 minutes. Over the duration of the experiment, resorufin photobleached to a greater extent than any of the fluorinated analogs.

T5 sequence (P01966 2-142 limits assumed): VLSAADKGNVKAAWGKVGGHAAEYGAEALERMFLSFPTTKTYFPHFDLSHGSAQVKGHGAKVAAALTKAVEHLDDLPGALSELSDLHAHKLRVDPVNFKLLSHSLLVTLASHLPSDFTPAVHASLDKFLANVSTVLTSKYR
T5 sequence (P02070 whole entry): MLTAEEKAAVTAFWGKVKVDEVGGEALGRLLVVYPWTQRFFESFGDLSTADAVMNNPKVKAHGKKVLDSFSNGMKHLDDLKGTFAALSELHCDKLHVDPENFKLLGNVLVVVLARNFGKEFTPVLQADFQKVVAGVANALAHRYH

CC(=O)N1c2ccc(O)cc2Oc2cc(O)ccc21 [Amplex Red, reference compound]
Z-factor ([1]; HRP 0.016 units/mL): 1.30 | Z-factor ([1]; HRP 0.063 units/mL): 0.51 | Z-factor ([1]; HRP 0.125 units/mL): 0.69 | Z-factor ([1]; HRP 0.25 units/mL): 0.85 | Lower limit of detection of HRP activity [1]: 0.032 units/mL

CC(=O)N1c2cc(F)c(O)cc2Oc2cc(O)c(F)cc21 [Compound 4, 2,8-Difluoro-10-acetyl-3,7-dihydroxyphenoxazine]
Relative fluorescent signal compared with Amplex Red (COX-2): stronger relative fluorescent signal | Z-factor ([1]; HRP 0.016 units/mL): 0.72 | Z-factor ([1]; HRP 0.032 units/mL): 0.89 | Z-factor ([1]; HRP 0.063 units/mL): 0.90 | Z-factor ([1]; HRP 0.125 units/mL): 0.81 | Z-factor ([1]; HRP 0.25 units/mL): 0.89 | Signal strength and dynamic range compared with Amplex Red ([1]; pH 5.5, FIG. 9): significantly greater | Lower limit of detection of HRP activity [1]: less than 0.016 units/mL | Fluorescent signal compared with Amplex Red [2]: greater fluorescent intensity signal | Limit of detection of myeloperoxidase (Myeloperoxidase): about 9.6 ng/mL | Limit of detection of myeloperoxidase (Myeloperoxidase; FIG. 10): 0.0078 U/mL | Fluorescence brightness compared with Amplex Red (Bovine hemoglobin): brighter

O=c1ccc2nc3cc(F)c(O)c(F)c3oc-2c1 [Compound 5]
Fluorescence remaining after irradiation for 30 minutes at 560 nm [3]: 96%

O=c1ccc2nc3ccc(O)c(F)c3oc-2c1 [Compound 6]
Fluorescence remaining after irradiation for 30 minutes at 560 nm [3]: 97%

O=c1ccc2nc3cc(F)c(O)cc3oc-2c1 [Compound 7]
Fluorescence remaining after irradiation for 30 minutes at 560 nm [3]: 94%

O=c1ccc2nc3c(F)cc(O)cc3oc-2c1 [Compound 8]
Fluorescence remaining after irradiation for 30 minutes at 560 nm [3]: 95%

O=c1ccc2nc3c(F)c(F)c(O)c(F)c3oc-2c1 [Compound 9]
Fluorescence remaining after irradiation for 30 minutes at 560 nm [3]: 98%

O=c1ccc2nc3ccc(O)cc3oc-2c1 [resorufin]
Fluorescence remaining after irradiation for 30 minutes at 560 nm [3]: 91%
